# Test results from ChEMBL document CHEMBL4507270 (2021).
# Key:
# [1] = system: Tyrosine-protein kinase ABL1 (Homo sapiens), P00519 [F317L]
# [2] = system: Tyrosine-protein kinase ABL1 (Homo sapiens), P00519 [T315I]
# [3] = target: Activin receptor type-1B (Homo sapiens) (UniProt P36896)
# [4] = target: Activin receptor type-2B (Homo sapiens) (UniProt Q13705)
# [5] = target: BMP-2-inducible protein kinase (Homo sapiens) (UniProt Q9NSY1)
# [6] = target: Serine/threonine-protein kinase BRSK1 (Homo sapiens) (UniProt Q8TDC3)
# Sequence of Serine/threonine-protein kinase BRSK1 (Homo sapiens) (Q8TDC3 whole entry): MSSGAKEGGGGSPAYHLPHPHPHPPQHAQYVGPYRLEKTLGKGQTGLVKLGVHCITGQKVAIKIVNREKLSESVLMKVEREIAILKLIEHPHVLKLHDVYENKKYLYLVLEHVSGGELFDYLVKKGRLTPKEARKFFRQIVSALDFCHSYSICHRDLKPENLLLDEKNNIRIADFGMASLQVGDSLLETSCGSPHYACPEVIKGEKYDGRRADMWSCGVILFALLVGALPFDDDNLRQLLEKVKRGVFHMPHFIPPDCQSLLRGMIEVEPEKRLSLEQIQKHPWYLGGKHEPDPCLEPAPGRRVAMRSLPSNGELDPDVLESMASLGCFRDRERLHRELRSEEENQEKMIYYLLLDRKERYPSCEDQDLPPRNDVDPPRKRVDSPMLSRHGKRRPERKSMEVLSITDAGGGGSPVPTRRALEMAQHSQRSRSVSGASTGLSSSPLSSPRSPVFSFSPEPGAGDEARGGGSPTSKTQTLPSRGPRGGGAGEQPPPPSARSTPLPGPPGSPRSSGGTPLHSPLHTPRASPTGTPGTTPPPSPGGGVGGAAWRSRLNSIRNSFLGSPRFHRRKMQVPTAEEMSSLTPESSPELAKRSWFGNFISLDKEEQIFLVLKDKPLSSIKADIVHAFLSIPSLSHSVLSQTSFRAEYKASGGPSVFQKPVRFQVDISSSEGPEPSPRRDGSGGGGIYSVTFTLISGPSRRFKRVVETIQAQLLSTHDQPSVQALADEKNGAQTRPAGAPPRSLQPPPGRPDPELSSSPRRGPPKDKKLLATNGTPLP
# [7] = target: Cyclin-dependent kinase 11A (Homo sapiens) (UniProt Q9UQ88)
# [8] = target: Cyclin-dependent kinase 4 (Homo sapiens) (UniProt P11802)
# [9] = target: Cyclin-dependent kinase-like 3 (Homo sapiens) (UniProt Q8IVW4)
# Sequence of Cyclin-dependent kinase-like 3 (Homo sapiens) (Q8IVW4 whole entry, looked up): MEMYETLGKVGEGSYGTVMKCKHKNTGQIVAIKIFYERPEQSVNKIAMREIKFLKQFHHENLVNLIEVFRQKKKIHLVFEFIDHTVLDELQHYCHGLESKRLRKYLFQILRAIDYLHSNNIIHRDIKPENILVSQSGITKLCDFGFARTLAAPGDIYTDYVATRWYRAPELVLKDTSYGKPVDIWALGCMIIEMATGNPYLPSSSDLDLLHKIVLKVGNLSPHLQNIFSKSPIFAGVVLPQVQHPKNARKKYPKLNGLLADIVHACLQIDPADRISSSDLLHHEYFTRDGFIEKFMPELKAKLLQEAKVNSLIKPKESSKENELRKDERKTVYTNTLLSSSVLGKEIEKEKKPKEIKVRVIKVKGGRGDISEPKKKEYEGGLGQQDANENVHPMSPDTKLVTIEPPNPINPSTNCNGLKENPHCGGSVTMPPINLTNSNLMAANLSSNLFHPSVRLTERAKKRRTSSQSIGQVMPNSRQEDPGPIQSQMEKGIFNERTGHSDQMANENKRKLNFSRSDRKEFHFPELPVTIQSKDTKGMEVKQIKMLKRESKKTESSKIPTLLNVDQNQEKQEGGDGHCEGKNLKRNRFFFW
# [10] = target: Macrophage colony-stimulating factor 1 receptor (Homo sapiens) (UniProt P07333)
# [11] = target: Casein kinase I isoform alpha (Homo sapiens) (UniProt P48729)
# Sequence of Casein kinase I isoform alpha (Homo sapiens) (P48729 2-337 limits assumed): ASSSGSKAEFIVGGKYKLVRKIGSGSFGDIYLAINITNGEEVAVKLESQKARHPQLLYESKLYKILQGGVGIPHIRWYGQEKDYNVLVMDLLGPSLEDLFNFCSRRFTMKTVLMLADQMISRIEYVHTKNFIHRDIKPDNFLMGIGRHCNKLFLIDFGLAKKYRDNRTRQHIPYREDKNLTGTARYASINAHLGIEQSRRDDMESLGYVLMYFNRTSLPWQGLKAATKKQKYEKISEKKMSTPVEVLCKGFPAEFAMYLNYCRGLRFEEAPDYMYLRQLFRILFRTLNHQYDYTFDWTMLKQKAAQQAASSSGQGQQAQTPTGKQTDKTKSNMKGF
# [12] = target: Casein kinase I isoform epsilon (Homo sapiens) (UniProt P49674)
# [13] = target: Mitogen-activated protein kinase kinase kinase 12 (Homo sapiens) (UniProt Q12852)
# [14] = target: Mitogen-activated protein kinase 3 (Homo sapiens) (UniProt P27361)
# [15] = target: Focal adhesion kinase 1 (Homo sapiens) (UniProt Q05397)
# [16] = system: Receptor-type tyrosine-protein kinase FLT3 (Homo sapiens), P36888 [D835Y]
# [17] = target: Rhodopsin kinase GRK7 (Homo sapiens) (UniProt Q8WTQ7)
# [18] = system: Mast/stem cell growth factor receptor Kit (Homo sapiens), P10721 [D816H]
# Sequence of Mast/stem cell growth factor receptor Kit (Homo sapiens), P10721 [D816H] (P10721 whole entry D816H): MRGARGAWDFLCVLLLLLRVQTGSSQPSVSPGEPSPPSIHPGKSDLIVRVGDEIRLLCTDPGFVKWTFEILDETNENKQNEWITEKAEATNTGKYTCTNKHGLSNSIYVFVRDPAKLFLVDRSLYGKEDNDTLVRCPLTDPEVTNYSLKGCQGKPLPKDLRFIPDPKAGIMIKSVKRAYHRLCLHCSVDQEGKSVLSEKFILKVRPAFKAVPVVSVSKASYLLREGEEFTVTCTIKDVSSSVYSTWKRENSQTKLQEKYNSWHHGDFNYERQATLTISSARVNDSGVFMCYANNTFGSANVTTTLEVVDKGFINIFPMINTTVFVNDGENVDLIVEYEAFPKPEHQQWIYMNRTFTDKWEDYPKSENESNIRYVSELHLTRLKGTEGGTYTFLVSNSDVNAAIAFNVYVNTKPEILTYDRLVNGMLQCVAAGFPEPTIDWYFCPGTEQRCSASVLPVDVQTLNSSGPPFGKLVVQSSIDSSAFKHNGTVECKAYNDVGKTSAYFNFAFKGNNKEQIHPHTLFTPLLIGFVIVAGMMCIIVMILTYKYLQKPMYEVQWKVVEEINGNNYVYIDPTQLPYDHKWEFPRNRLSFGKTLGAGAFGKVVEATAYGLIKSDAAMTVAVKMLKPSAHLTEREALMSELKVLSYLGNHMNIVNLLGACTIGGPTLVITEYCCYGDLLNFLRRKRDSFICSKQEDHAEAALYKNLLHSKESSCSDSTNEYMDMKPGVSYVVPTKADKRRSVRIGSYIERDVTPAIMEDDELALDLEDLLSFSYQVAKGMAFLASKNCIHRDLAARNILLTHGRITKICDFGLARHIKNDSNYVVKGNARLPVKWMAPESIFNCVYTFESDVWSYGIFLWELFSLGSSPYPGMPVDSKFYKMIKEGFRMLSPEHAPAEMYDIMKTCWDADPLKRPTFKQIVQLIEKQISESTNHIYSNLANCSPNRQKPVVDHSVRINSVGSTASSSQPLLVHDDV
# [19] = target: Tyrosine-protein kinase Lck (Homo sapiens) (UniProt P06239)
# [20] = target: LIM domain kinase 1 (Homo sapiens) (UniProt P53667)
# [21] = system: Leucine-rich repeat serine/threonine-protein kinase 2 (Homo sapiens), Q5S007 [G2019S]
# [22] = target: Leukocyte tyrosine kinase receptor (Homo sapiens) (UniProt P29376)
# [23] = target: Mitogen-activated protein kinase kinase kinase kinase 2 (Homo sapiens) (UniProt Q12851)
# Sequence of Mitogen-activated protein kinase kinase kinase kinase 2 (Homo sapiens) (Q12851 whole entry): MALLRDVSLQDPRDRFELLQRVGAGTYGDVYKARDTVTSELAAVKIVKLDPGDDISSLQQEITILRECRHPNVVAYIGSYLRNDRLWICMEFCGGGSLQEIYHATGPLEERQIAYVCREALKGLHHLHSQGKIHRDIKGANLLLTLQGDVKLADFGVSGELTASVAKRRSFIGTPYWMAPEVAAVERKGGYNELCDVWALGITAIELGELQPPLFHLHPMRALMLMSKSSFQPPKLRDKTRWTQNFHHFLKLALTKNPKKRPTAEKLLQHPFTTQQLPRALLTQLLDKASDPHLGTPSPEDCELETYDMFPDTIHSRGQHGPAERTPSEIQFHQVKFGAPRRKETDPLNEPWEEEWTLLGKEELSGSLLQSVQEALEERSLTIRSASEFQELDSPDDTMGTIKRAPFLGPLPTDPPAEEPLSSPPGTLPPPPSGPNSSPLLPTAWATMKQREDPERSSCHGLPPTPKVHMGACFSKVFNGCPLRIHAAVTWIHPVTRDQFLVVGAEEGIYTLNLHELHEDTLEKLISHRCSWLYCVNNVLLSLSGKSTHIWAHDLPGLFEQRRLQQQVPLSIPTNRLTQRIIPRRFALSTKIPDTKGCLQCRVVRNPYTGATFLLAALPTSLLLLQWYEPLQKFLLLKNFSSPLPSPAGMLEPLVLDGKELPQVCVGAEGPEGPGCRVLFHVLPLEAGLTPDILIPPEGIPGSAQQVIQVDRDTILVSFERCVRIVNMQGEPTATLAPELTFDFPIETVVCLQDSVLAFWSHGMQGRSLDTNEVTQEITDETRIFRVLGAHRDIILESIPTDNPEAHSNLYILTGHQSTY
# [24] = target: Serine/threonine-protein kinase MARK2 (Homo sapiens) (UniProt Q7KZI7)
# [25] = target: Microtubule-associated serine/threonine-protein kinase 1 (Homo sapiens) (UniProt Q9Y2H9)
# [26] = target: Maternal embryonic leucine zipper kinase (Homo sapiens) (UniProt Q14680)
# [27] = target: Serine/threonine-protein kinase MRCK alpha (Homo sapiens) (UniProt Q5VT25)
# [28] = target: Serine/threonine-protein kinase MRCK beta (Homo sapiens) (UniProt Q9Y5S2)
# [29] = target: Serine/threonine-protein kinase PAK 1 (Homo sapiens) (UniProt Q13153)
# [30] = target: Cyclin-dependent kinase 14 (Homo sapiens) (UniProt O94921)
# [31] = system: Phosphatidylinositol 4,5-bisphosphate 3-kinase catalytic subunit alpha isoform (Homo sapiens), P42336 [M1043I]
# [32] = target: Phosphatidylinositol 4,5-bisphosphate 3-kinase catalytic subunit gamma isoform (Homo sapiens) (UniProt P48736)
# [33] = target: Serine/threonine-protein kinase N1 (Homo sapiens) (UniProt Q16512)
# [34] = target: Serine/threonine-protein kinase PknB (Mycobacterium tuberculosis) (UniProt P9WI81)
# [35] = target: Protein kinase C epsilon type (Homo sapiens) (UniProt Q02156)
# [36] = target: Protein kinase C eta type (Homo sapiens) (UniProt P24723)
# [37] = target: Serine/threonine-protein kinase SIK1 (Homo sapiens) (UniProt P57059)
# Sequence of Serine/threonine-protein kinase SIK1 (Homo sapiens) (P57059 whole entry): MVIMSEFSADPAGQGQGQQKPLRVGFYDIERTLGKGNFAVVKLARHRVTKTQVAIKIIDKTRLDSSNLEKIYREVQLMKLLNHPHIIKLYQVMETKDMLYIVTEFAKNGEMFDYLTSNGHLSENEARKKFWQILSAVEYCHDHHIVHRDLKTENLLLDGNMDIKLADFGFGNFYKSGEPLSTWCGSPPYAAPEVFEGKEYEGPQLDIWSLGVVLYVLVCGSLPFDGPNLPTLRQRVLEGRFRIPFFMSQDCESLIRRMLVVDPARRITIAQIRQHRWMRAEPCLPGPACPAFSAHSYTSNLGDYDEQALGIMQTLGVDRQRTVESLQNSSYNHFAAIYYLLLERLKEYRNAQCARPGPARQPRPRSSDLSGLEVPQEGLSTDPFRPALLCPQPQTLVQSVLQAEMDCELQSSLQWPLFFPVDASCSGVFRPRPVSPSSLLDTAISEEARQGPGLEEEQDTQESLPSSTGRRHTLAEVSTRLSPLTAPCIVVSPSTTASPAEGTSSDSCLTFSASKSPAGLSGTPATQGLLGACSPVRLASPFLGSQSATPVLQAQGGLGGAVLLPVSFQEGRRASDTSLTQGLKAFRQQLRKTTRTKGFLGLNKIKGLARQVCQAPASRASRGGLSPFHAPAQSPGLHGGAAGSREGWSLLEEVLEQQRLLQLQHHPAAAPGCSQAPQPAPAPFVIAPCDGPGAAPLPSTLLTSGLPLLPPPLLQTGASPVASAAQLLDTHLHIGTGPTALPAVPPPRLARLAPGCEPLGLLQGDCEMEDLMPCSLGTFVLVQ
# [38] = target: Serine/threonine-protein kinase TAO1 (Homo sapiens) (UniProt Q7L7X3)
# [39] = target: TRAF2 and NCK-interacting protein kinase (Homo sapiens) (UniProt Q9UKE5)
# [40] = target: NT-3 growth factor receptor (Homo sapiens) (UniProt Q16288)
# [41] = target: Tyrosine-protein kinase receptor TYRO3 (Homo sapiens) (UniProt Q06418)
# [42] = target: Serine/threonine-protein kinase ULK1 (Homo sapiens) (UniProt O75385)
# [43] = target: D(1A) dopamine receptor (Homo sapiens) (UniProt P21728); conditions: Compound concentration 10.0 uM
# [44] = target: Delta-type opioid receptor (Homo sapiens, UniProt P41143); conditions: Compound concentration 10.0 uM
# [45] = target: Alpha-1A adrenergic receptor (Homo sapiens) (UniProt P35348); conditions: Compound concentration 10.0 uM
# [46] = target: Beta-3 adrenergic receptor (Homo sapiens, UniProt P13945); conditions: Compound concentration 10.0 uM
# [47] = Compound concentration 1000.0 nM
# [48] = Compound concentration 100.0 nM
# Sequence of Activin receptor type-2B (Homo sapiens) (Q13705 whole entry): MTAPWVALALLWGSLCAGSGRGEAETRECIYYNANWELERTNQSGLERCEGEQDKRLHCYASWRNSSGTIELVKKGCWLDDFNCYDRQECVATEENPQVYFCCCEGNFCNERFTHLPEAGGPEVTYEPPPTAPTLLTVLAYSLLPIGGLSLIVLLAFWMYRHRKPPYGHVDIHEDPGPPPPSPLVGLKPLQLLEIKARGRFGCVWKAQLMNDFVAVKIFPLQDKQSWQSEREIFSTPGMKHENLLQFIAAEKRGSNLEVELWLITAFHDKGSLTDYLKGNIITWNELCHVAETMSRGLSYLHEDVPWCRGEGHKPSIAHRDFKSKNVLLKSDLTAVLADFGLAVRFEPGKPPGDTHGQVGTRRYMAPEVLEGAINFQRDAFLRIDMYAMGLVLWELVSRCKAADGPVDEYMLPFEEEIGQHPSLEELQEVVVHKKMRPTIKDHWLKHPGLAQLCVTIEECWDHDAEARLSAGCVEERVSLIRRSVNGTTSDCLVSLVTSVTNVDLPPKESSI
structure (smiles),measurement,setting,value
Cc1cc(NC(=O)c2cccc(S(F)(F)(F)(F)F)c2)cc(-n2ccn3nc(-c4cccnc4)cc23)c1 [BAY-309],residual activity,[1]; [47],100%
same,residual activity,[2]; [47],60.8%
same,residual activity,[3]; [47],100%
same,residual activity,[4]; [47],100%
same,residual activity,[5]; [47],65.9%
same,residual activity,[6]; [47],100%
same,residual activity,[7]; [47],95.4%
same,residual activity,[8]; [47],79.3%
same,residual activity,[9]; [47],100%
same,residual activity,[10]; [47],100%
same,residual activity,[11]; [47],50.7%
same,residual activity,[12]; [47],75.7%
same,residual activity,[13]; [47],67.7%
same,residual activity,[14]; [47],86.8%
same,residual activity,[15]; [47],96.4%
same,residual activity,[16]; [47],100%
same,residual activity,[17]; [47],100%
same,residual activity,[18]; [47],73.1%
same,residual activity,[19]; [47],96.6%
same,residual activity,[20]; [47],100%
same,residual activity,[21]; [47],81.3%
same,residual activity,[22]; [47],100%
same,residual activity,[23]; [47],100%
same,residual activity,[24]; [47],100%
same,residual activity,[25]; [47],100%
same,residual activity,[26]; [47],100%
same,residual activity,[27]; [47],88.5%
same,residual activity,[28]; [47],100%
same,residual activity,[29]; [47],90.9%
same,residual activity,[30]; [47],93.8%
same,residual activity,[31]; [47],30.3%
same,residual activity,[32]; [47],100%
same,residual activity,[33]; [47],100%
same,residual activity,[34]; [47],63.7%
same,residual activity,[35]; [47],91.2%
same,residual activity,[36]; [47],100%
same,residual activity,[37]; [47],100%
same,residual activity,[38]; [47],100%
same,residual activity,[39]; [47],100%
same,residual activity,[40]; [47],27.2%
same,residual activity,[41]; [47],88.4%
same,residual activity,[42]; [47],100%
same,inhibition,[43],20.6%
same,inhibition,[44],58.5%
same,inhibition,[45],5.89%
same,inhibition,[46],32.3%
Cc1cc(C)c(-n2ccn3nc(-c4cccnc4)cc23)cc1NC(=O)c1cc(C#N)cc(S(F)(F)(F)(F)F)c1 [BAY-826],residual activity,[1]; [48],26.6%
same,residual activity,[2]; [48],83.8%
same,residual activity,[3]; [48],100%
same,residual activity,[4]; [48],88.7%
same,residual activity,[5]; [48],94.7%
same,residual activity,[6]; [48],84%
same,residual activity,[7]; [48],89.9%
same,residual activity,[8]; [48],82.4%
same,residual activity,[9]; [48],81.2%
same,residual activity,[10]; [48],85.5%
same,residual activity,[11]; [48],67%
same,residual activity,[12]; [48],98.7%
same,residual activity,[13]; [48],82.5%
same,residual activity,[14]; [48],95.2%
same,residual activity,[15]; [48],100%
same,residual activity,[16]; [48],91.4%
same,residual activity,[17]; [48],65.6%
same,residual activity,[18]; [48],81.8%
same,residual activity,[19]; [48],41.6%
same,residual activity,[20]; [48],83.6%
same,residual activity,[21]; [48],73.9%
same,residual activity,[22]; [48],32.8%
same,residual activity,[23]; [48],53.1%
same,residual activity,[24]; [48],100%
same,residual activity,[25]; [48],100%
same,residual activity,[26]; [48],100%
same,residual activity,[27]; [48],100%
same,residual activity,[28]; [48],95.5%
same,residual activity,[29]; [48],82.2%
same,residual activity,[30]; [48],100%
same,residual activity,[31]; [48],100%
same,residual activity,[32]; [48],98.5%
same,residual activity,[33]; [48],96.7%
same,residual activity,[34]; [48],62.5%
same,residual activity,[35]; [48],100%
same,residual activity,[36]; [48],99.5%
same,residual activity,[37]; [48],86.3%
same,residual activity,[38]; [48],45.2%
same,residual activity,[39]; [48],97.4%
same,residual activity,[40]; [48],60.4%
same,residual activity,[41]; [48],72.4%
same,residual activity,[42]; [48],100%
same,inhibition,[43],4.82%
same,inhibition,[44],18.7%
same,inhibition,[45],-3.02%
same,inhibition,[46],52.3%
